Values after ≈ are worked out from the molar mass of the structure shown.
Columns and labels:
[1] = system: Trichomonas Vaginalis ISM 66/22; test: In vitro activity (M.I.C.) against Trichomonas Vaginalis; format: cell-based; conditions: for MIC: Trichomonas vaginalis, average ± S.E., 5 tests, 48 hours at 37° C., ISM 66/22, pH 6.0, read-out: minimum inhibiting concentration (M.I.C.), Trichomonas Vaginalis; for anti-protozoic activity in vitro: Table 1, also E. Histolytica
Method: (§1) The method of evaluation of the activity of the compounds of the invention "in vitro" consists of introducing various quantities of the substance to be tested, into a culture medium previously inoculated with a predetermined number of test germs.
(§2) After 48 hours of incubation at 37° C. it is possible to evaluate the growth of the micro-organism in the culture broth; thus the minimum concentration (M.I.C.) which inhibits the growth of the microorganisms "in vitro" is determined.
(A1) Trichomonas Vaginalis
The Trichomonas Vaginalis stocks are kept vital by transfer every 48 hours into Trichosel BBL substrate containing 15% in weight/volume of deactivated horse serum. The composition of the Trichosel BBL substrate is disclosed for example in Exp. Biol. and Med., Vol. 67, p. 304 (1948).
The inoculation was carried out in the proportion of 5% of the volume of the above substrate, to which has been added 5% in weight/volume of horse serum. The evaluation is macroscopic, the presence or lack of live cells in the culture medium being observed.
pH of the inoculated culture medium: 6.0.

Entamoeba Histolytica [2] = test: In vitro activity (M.I.C.) against Entamoeba Histolytica; format: cell-based; conditions: average ± S.E., 5 tests, 48 hours at 37° C., Pavlova substrate, read-out: minimum inhibiting concentration (M.I.C.), E. Histolytica
Method: as §1, §2
(A2) Entamoeba Histolytica
The stock is kept vital by transfer every 48 hours at 37° C. into slants containing a bi-phase medium composed of 5 ml of coagulated horse serum and […] of Pavlova substrate containing 15% in weight/volume of deactivated horse serum. The Pavlova substrate is described for example in Ann. Trop. Med. Parasitology, Vol. 40, p. 130 (1946).
The measurement of the M.I.C. is carried out in test tubes containing 0.5 ml of coagulated horse serum and the liquid phase of the Pavlova substrate containing 5% in weight/volume of horse serum, previously inoculated in the proportion of about 10,000 cells per ml of substrate.
The evaluation is microscopic, the presence or lack of live cells in the culture medium being observed.

Trichomonas Vaginalis = test: Systemic activity in mice infected subcutaneously with Trichomonas Vaginalis; format: in vivo; conditions: for ED84: Trichomonas vaginalis, 168 h, oral, twice a day over 5 days, dose preventing infection in 84% of animals, (S)/(NS) = significance of regression line, read-out: ED84, anti-trichomonas activity in mice; for Index of relative activity calc. on ED84 (vs metronidazole), mice: relative to metronidazole = 1; for anti-trichomonas activity in vivo in mice: Table 2
Method: (B1) Systematic activity in mice infected subcutaneously with Trichomonas Vaginalis Female Charles River mice of about 20 grams weight are used and injected subcutaneously with 1 ml of a physiological solution containing 10^6 cells of Trichomonas Vaginalis (evaluated by means of counting in a Burker chamber), resulting from a 24 hour culture in Trichosel BBL substrate containing 15% in weight/volume of deactivated horse serum. Abscesses are thus developed in the place of infection which may burst open externally, piercing the skin. To establish the activity of a product, groups of 10 animals per tested dose are used, and on the 7th day the presence or absence of abscesses are determined (evaluated in terms of all or nothing). The compounds are administered orally, dissolved or in suspension in water, over 5 days, twice a day, the treatment being started 30 minutes after infection. The results obtained are recorded in Table 2 which gives the ED84 in mg/kg for oral administration, that is the dose of the drug capable of preventing the formation of the infection in 84% of the infected animals.

Entamoeba Histolytica [3] = test: Systemic activity on hepatic abscess from Entamoeba Histolytica in the hamster; format: in vivo; conditions: for ED84: Entamoeba histolytica, 72 h, oral, twice a day for four days, dose reducing abscess weight by 84% vs controls, (S)/(NS) = significance of regression line, read-out: ED84, anti-amoebic activity in the hamster; for Index of relative activity calc. on the ED84 (vs metronidazole), hamster: relative to metronidazole = 1
Method: (B2) Systemic activity on hepatic abscess from Entamoeba Histolytica in the hamster Golden hamsters of the strain RRL-805 of about 50 grams weight are used; after laparatomy, 0.05 ml of a suspension of amoebae (cellular density of about 10^6 amoebae/ml) is injected into the right hepatic lobe. Abscesses develop on the liver, the average weight of which is determined after killing of the animals 72 hours after the injection. The drugs under examination are administered orally twice a day for four days, the treatment being started the day before the infection. The evaluation is carried out by comparing the average weight of the hepatic abscesses developed in the group of animals treated with a drug with that of a control group. The results obtained are recorded in Table 3 which gives the ED84 in mg/kg administered orally, that is the dose of the drug capable of reducing the weight of the abscesses by 84% with respect to the controls. The values given were calculated from the regression line obtained from the results of a series of experiments, each compound being administered to at least 5 groups of six animals at generally different doses.

[4] = Acute oral toxicity in mice; conditions: mouse, in vivo, within 14 days
Method: The acute oral toxicity of the compounds according to the invention was also determined in mice and compared with that of other nitro-imidazole compounds used previously as control standards.
For every dose tested, the substance was administered orally to groups of 10 female CF1 mice, having an average weight of about 20 grams, in an aqueous suspension containing 10% of gum arabic, the volume administered being 1 ml/100 grams of body weight. The LD50 was determined, that is, the dose expressed in mg/kg of body weight which induces the death of 50% of the animals treated within 14 days from administration.

[5] = system: Salmonella Typhimurium TA 100; test: Ames mutagenesis test with metabolic activation; format: cell-based; conditions: for Revertants/plate (max value): 15.62 to 1000 μg/plate, control background about 100 revertants per plate; for Index of relative mutagenic power (Compound/Metronidazole): relative to metronidazole = 1
Method: Mutagenesis test with metabolic activation on histidine (-) strains of Salmonella Typhimurium by the Ames method
The capacity for reversing the histidine (-) mutation which is peculiar to the TA 100 strain was measured, this strain being recommended for chemio-therapeutic screening in that it has a resistance factor R; TA 100 is a carrier of a mutation caused by the substitution of a pair of bases. The method used is that described by Ames et al. (Mutation Res. 31, (1975), 347-364).

SMILES	MIC [1] [µg/mL]	MIC (Entamoeba Histolytica [2]) [µg/mL]	ED84 (Trichomonas Vaginalis) [mg/kg]	Index of relative activity calc. on ED84 (vs metronidazole), mice (Trichomonas Vaginalis)	ED84 (Entamoeba Histolytica [3]) [mg/kg]	Index of relative activity calc. on the ED84 (vs metronidazole), hamster (Entamoeba Histolytica [3])	LD50 at 336 h [4] [mg/kg]	Revertants/plate (max value) [5] [Revertants/plate]	Index of relative mutagenic power (Compound/Metronidazole) [5]	anti-protozoic activity in vitro [1]	anti-trichomonas activity in vivo in mice (Trichomonas Vaginalis)	anti-amoebic activity in hamster (Entamoeba Histolytica [3]; Table 3)	activity compared with metronidazole (times) (Entamoeba Histolytica [3]; hamster hepatic abscess, Table 3)
CN1CCN(CCCn2cncc2[N+](=O)[O-])CC1 [Example 1, 1-methyl-4-[3-(5-nitro-1-H-imidazol-1-yl)-propyl]-piperazine]	6.3 ± 1.37 (≈ 24.9 µM)	51.2 ± 43.1 (≈ 202 µM)	69.4	0.41	86.3	1.2	810	780	0.17				
CCN1CCN(CCCn2cncc2[N+](=O)[O-])CC1 [Example 2, 1-ethyl-4-[3-(5-nitro-1-H-imidazol-1-yl)-propyl]-piperazine]	5.8 ± 1.12 (≈ 21.7 µM)	60.1 ± 14.2 (≈ 225 µM)	66	0.43			900						
CCOC(=O)N1CCN(CCCn2cncc2[N+](=O)[O-])CC1 [Example 3, 1-carboxyethyl-4-[3-(5-nitro-1-H-imidazol-1-yl)-propyl]-piperazine]	0.56 ± 0.1 (≈ 1.8 µM)	53.1 ± 11.5 (≈ 171 µM)	170	0.16	84.7	1.2	2430	1400	0.31	very active in vitro	the activity is reduced		
CN1CCN(CCn2cncc2[N+](=O)[O-])CC1 [Example 4, 1-methyl-4-[2-(5-nitro-1-H-imidazol-1-yl)-ethyl]-piperazine]	7.9 ± 1.37 (≈ 33 µM)	63.1 ± 14.2 (≈ 264 µM)	77.5	0.37	108	1	880	780	0.17				
CCOC(=O)N1CCN(CCn2cncc2[N+](=O)[O-])CC1 [Example 5, 1-carboxyethyl-4-[2-(5-nitro-1-H-imidazol-1-yl)-ethyl]-piperazine]	2.4 ± 0.7 (≈ 8.07 µM)	66.1 ± 16 (≈ 222 µM)					2310						
Cc1ncc([N+](=O)[O-])n1CCCN1CCN(C)CC1 [Example 6, 1-methyl-4-[3-(2-methyl-5-nitro-1-H-imidazol-1-yl)-propyl]-piperazine]	3.2 ± 0.82 (≈ 12 µM)	22 ± 8.5 (≈ 82.3 µM)	41.2	0.69	54.2	2	1630	510	0.11			the greatest activity in this test	about twice
COC(=O)N1CCN(CCCn2c([N+](=O)[O-])cnc2C)CC1 [Example 7]	2.2 ± 0.85 (≈ 7.07 µM)	45 ± 11.5 (≈ 145 µM)					2420						
CCOC(=O)N1CCN(CCCn2c([N+](=O)[O-])cnc2C)CC1 [Example 8, 1-carboxyethyl-4-[3-(2-methyl-5-nitro-1-H-imidazol-1-yl)-propyl]-piperazine]	0.7 ± 0.13 (≈ 2.15 µM)	40.1 ± 10.8 (≈ 123 µM)	150	0.19	75.5	1.4	2630	1140	0.25	very active in vitro	the activity is reduced		
CCc1ncc([N+](=O)[O-])n1CCCN1CCN(C)CC1 [Example 10, 1-methyl-4-[3-(2-ethyl-5-nitro-1-H-imidazol-1-yl)-propyl]-piperazine]	2.7 ± 0.85 (≈ 9.6 µM)	26 ± 10.4 (≈ 92.4 µM)	30.7	0.93			1960						
CN1CCN(CCCn2c([N+](=O)[O-])cnc2-c2ccccc2)CC1 [Example 11, 1-methyl-4-[3-(2-phenyl-5-nitro-1-H-imidazol-1-yl)-propyl]-piperazine]	5.6 ± 1.28 (≈ 17 µM)	39 ± 12.6 (≈ 118 µM)	48	0.59	130	0.8	1680						
CN1CCN(CCn2c([N+](=O)[O-])cnc2-c2ccccc2)CC1 [Example 12, 1-methyl-4-[2-(2-phenyl-5-nitro-1-H-imidazol-1-yl)-ethyl]-piperazine]	8.1 ± 2.1 (≈ 25.7 µM)	43 ± 9.8 (≈ 136 µM)					3320	750	0.16				
O=C1NCCN1c1ncc([N+](=O)[O-])s1 [NIRIDAZOLE, reference compound]	1.22 ± 0.411 (≈ 5.7 µM)	28 ± 9.6 (≈ 131 µM)											
